# PubChem BioAssay AID2060895 (Molecular Pharmacology Branch, DTP, NCI, 2025)
# System: PDC 899932-113-R3-J6 complex spheroid viability
# Assay: Anticancer human tumor 899932-113-R3-J6-PDC patient-derived melanoma cell line growth inhibition [RAS]
# Settings: for IC50: curve of first compound; for viability, T/C: stronger effect = lower value
# How it was run: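 Tumour cells grown as complex spheroids with HUVEC endothelial cells and mesenchymal stem cells, treated with RAS pathway inhibitor combinations. Each agent spans half-log steps from near clinical Cmax, or 10 microM where Cmax is unknown.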
# [1] = second compound 0.000949 µM, first compound 0.00316 µM
# [2] = second compound 0.000949 µM, first compound 0.01 µM
# [3] = second compound 0.000949 µM, first compound 0.0316 µM
# [4] = second compound 0.000949 µM, first compound 0.1 µM
# [5] = second compound 0.003 µM, first compound 0.00316 µM
# [6] = second compound 0.003 µM, first compound 0.01 µM
# [7] = second compound 0.003 µM, first compound 0.0316 µM
# [8] = second compound 0.003 µM, first compound 0.1 µM
# [9] = second compound 0.00949 µM, first compound 0.00316 µM
# [10] = second compound 0.00949 µM, first compound 0.01 µM
# [11] = second compound 0.00949 µM, first compound 0.0316 µM
# [12] = second compound 0.00949 µM, first compound 0.1 µM
# [13] = second compound 0.03 µM, first compound 0.00316 µM
# [14] = second compound 0.03 µM, first compound 0.01 µM
# [15] = second compound 0.03 µM, first compound 0.0316 µM
# [16] = second compound 0.03 µM, first compound 0.1 µM
# [17] = second compound 0.0949 µM, first compound 0.00316 µM
# [18] = second compound 0.0949 µM, first compound 0.01 µM
# [19] = second compound 0.0949 µM, first compound 0.0316 µM
# [20] = second compound 0.0949 µM, first compound 0.1 µM
# [21] = second compound 0.3 µM, first compound 0.00316 µM
# [22] = second compound 0.3 µM, first compound 0.01 µM
# [23] = second compound 0.3 µM, first compound 0.0316 µM
# [24] = second compound 0.3 µM, first compound 0.1 µM
# [25] = second compound 0.000949 µM, first compound 0.316 µM
# [26] = second compound 0.000949 µM, first compound 1 µM
# [27] = second compound 0.000949 µM, first compound 3.16 µM
# [28] = second compound 0.000949 µM, first compound 10 µM
# [29] = second compound 0.003 µM, first compound 0.316 µM
# [30] = second compound 0.003 µM, first compound 1 µM
# [31] = second compound 0.003 µM, first compound 3.16 µM
# [32] = second compound 0.003 µM, first compound 10 µM
# [33] = second compound 0.00949 µM, first compound 0.316 µM
# [34] = second compound 0.00949 µM, first compound 1 µM
# [35] = second compound 0.00949 µM, first compound 3.16 µM
# [36] = second compound 0.00949 µM, first compound 10 µM
# [37] = second compound 0.03 µM, first compound 0.316 µM
# [38] = second compound 0.03 µM, first compound 1 µM
# [39] = second compound 0.03 µM, first compound 3.16 µM
# [40] = second compound 0.03 µM, first compound 10 µM
# [41] = second compound 0.0949 µM, first compound 0.316 µM
# [42] = second compound 0.0949 µM, first compound 1 µM
# [43] = second compound 0.0949 µM, first compound 3.16 µM
# [44] = second compound 0.0949 µM, first compound 10 µM
# [45] = second compound 0.3 µM, first compound 0.316 µM
# [46] = second compound 0.3 µM, first compound 1 µM
# [47] = second compound 0.3 µM, first compound 3.16 µM
# [48] = second compound 0.3 µM, first compound 10 µM
# 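For viability, T/C in this document: spheroids exposed to agents for seven days before readout; 100% = DMSO vehicle control wells.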
compound,measurement,setting,value
CC(C)n1nc(-c2ccc3oc(N)nc3c2)c2c(N)ncnc21 + CCn1c(-c2cccnc2C(C)OC)c2c3cc(ccc31)N1CCOC(CC(NC(=O)C(C(C)C)N(C)C(=O)C3(F)CCN(C(=O)C#CC(C)(C)N(C)C)CC3)C(=O)N3CCCC(N3)C(=O)OCC(C)(C)C2)C1,IC50,second compound 0.000949 µM,> 100 nM
same,IC50,second compound 0.003 µM,> 100 nM
same,IC50,second compound 0.00949 µM,> 100 nM
same,IC50,second compound 0.03 µM,> 100 nM
same,IC50,second compound 0.0949 µM,> 100 nM
same,IC50,second compound 0.3 µM,> 100 nM
same,"viability, T/C","second compound 0.000949 µM, first compound 0.000316 µM",107%
same,"viability, T/C","second compound 0.000949 µM, first compound 0.001 µM",97.1%
same,"viability, T/C",[1],101%
same,"viability, T/C",[2],85%
same,"viability, T/C",[3],60.3%
same,"viability, T/C",[4],100%
same,"viability, T/C","second compound 0.003 µM, first compound 0.000316 µM",92.3%
same,"viability, T/C","second compound 0.003 µM, first compound 0.001 µM",107%
same,"viability, T/C",[5],96.7%
same,"viability, T/C",[6],82%
same,"viability, T/C",[7],65%
same,"viability, T/C",[8],102%
same,"viability, T/C","second compound 0.00949 µM, first compound 0.000316 µM",105%
same,"viability, T/C","second compound 0.00949 µM, first compound 0.001 µM",100%
same,"viability, T/C",[9],92.5%
same,"viability, T/C",[10],85.6%
same,"viability, T/C",[11],65.5%
same,"viability, T/C",[12],100%
same,"viability, T/C","second compound 0.03 µM, first compound 0.000316 µM",104%
same,"viability, T/C","second compound 0.03 µM, first compound 0.001 µM",98.5%
same,"viability, T/C",[13],89.3%
same,"viability, T/C",[14],86.1%
same,"viability, T/C",[15],61%
same,"viability, T/C",[16],94.3%
same,"viability, T/C","second compound 0.0949 µM, first compound 0.000316 µM",95.2%
same,"viability, T/C","second compound 0.0949 µM, first compound 0.001 µM",93.5%
same,"viability, T/C",[17],91.3%
same,"viability, T/C",[18],76.7%
same,"viability, T/C",[19],61.1%
same,"viability, T/C",[20],93.1%
same,"viability, T/C","second compound 0.3 µM, first compound 0.000316 µM",86.7%
same,"viability, T/C","second compound 0.3 µM, first compound 0.001 µM",80.1%
same,"viability, T/C",[21],75.6%
same,"viability, T/C",[22],57.9%
same,"viability, T/C",[23],51.2%
same,"viability, T/C",[24],92.9%
CC1(O)CCCC1n1c(=O)c(C(F)F)cc2cnc(NC3CCN(S(C)(=O)=O)CC3)nc21 (stereo not drawn) + CCn1c(-c2cccnc2C(C)OC)c2c3cc(ccc31)N1CCOC(CC(NC(=O)C(C(C)C)N(C)C(=O)C3(F)CCN(C(=O)C#CC(C)(C)N(C)C)CC3)C(=O)N3CCCC(N3)C(=O)OCC(C)(C)C2)C1,IC50,second compound 0.000949 µM,3730 nM
same,IC50,second compound 0.003 µM,3710 nM
same,IC50,second compound 0.00949 µM,2840 nM
same,IC50,second compound 0.03 µM,3470 nM
same,IC50,second compound 0.0949 µM,2710 nM
same,IC50,second compound 0.3 µM,3410 nM
same,"viability, T/C",[3],98.1%
same,"viability, T/C",[4],86.7%
same,"viability, T/C",[25],72.3%
same,"viability, T/C",[26],68.8%
same,"viability, T/C",[27],56.8%
same,"viability, T/C",[28],33.6%
same,"viability, T/C",[7],99.8%
same,"viability, T/C",[8],83%
same,"viability, T/C",[29],71.6%
same,"viability, T/C",[30],69.7%
same,"viability, T/C",[31],59%
same,"viability, T/C",[32],32.3%
same,"viability, T/C",[11],107%
same,"viability, T/C",[12],84.5%
same,"viability, T/C",[33],69.7%
same,"viability, T/C",[34],63.4%
same,"viability, T/C",[35],55.9%
same,"viability, T/C",[36],32.9%
same,"viability, T/C",[15],110%
same,"viability, T/C",[16],79.9%
same,"viability, T/C",[37],69.6%
same,"viability, T/C",[38],70.1%
same,"viability, T/C",[39],59.7%
same,"viability, T/C",[40],32.3%
same,"viability, T/C",[19],94%
same,"viability, T/C",[20],80.2%
same,"viability, T/C",[41],66.3%
same,"viability, T/C",[42],64.8%
same,"viability, T/C",[43],55.6%
same,"viability, T/C",[44],27%
same,"viability, T/C",[23],88.5%
same,"viability, T/C",[24],77.8%
same,"viability, T/C",[45],69.3%
same,"viability, T/C",[46],63.7%
same,"viability, T/C",[47],59.6%
same,"viability, T/C",[48],23.1%
CCN1CCN(Cc2ccc(Nc3ncc(F)c(-c4cc(F)c5nc(C)n(C(C)C)c5c4)n3)nc2)CC1 + CCn1c(-c2cccnc2C(C)OC)c2c3cc(ccc31)N1CCOC(CC(NC(=O)C(C(C)C)N(C)C(=O)C3(F)CCN(C(=O)C#CC(C)(C)N(C)C)CC3)C(=O)N3CCCC(N3)C(=O)OCC(C)(C)C2)C1,IC50,second compound 0.000949 µM,> 1000 nM
same,IC50,second compound 0.003 µM,600 nM
same,IC50,second compound 0.00949 µM,510 nM
same,IC50,second compound 0.03 µM,520 nM
same,IC50,second compound 0.0949 µM,641 nM
same,IC50,second compound 0.3 µM,> 1000 nM
same,"viability, T/C",[1],105%
same,"viability, T/C",[2],104%
same,"viability, T/C",[3],99.5%
same,"viability, T/C",[4],82.7%
same,"viability, T/C",[25],52.9%
same,"viability, T/C",[26],52.1%
same,"viability, T/C",[5],108%
same,"viability, T/C",[6],99.6%
same,"viability, T/C",[7],96.1%
same,"viability, T/C",[8],84.2%
same,"viability, T/C",[29],57.6%
same,"viability, T/C",[30],43.1%
same,"viability, T/C",[9],105%
same,"viability, T/C",[10],106%
same,"viability, T/C",[11],96.6%
same,"viability, T/C",[12],85.6%
same,"viability, T/C",[33],52.4%
same,"viability, T/C",[34],45.4%
same,"viability, T/C",[13],103%
same,"viability, T/C",[14],97.2%
same,"viability, T/C",[15],92.5%
same,"viability, T/C",[16],77.7%
same,"viability, T/C",[37],52.3%
same,"viability, T/C",[38],45.5%
same,"viability, T/C",[17],99.8%
same,"viability, T/C",[18],90.6%
same,"viability, T/C",[19],88%
same,"viability, T/C",[20],73.1%
same,"viability, T/C",[41],55.7%
same,"viability, T/C",[42],46.2%
same,"viability, T/C",[21],91.4%
same,"viability, T/C",[22],89.2%
same,"viability, T/C",[23],83.4%
same,"viability, T/C",[24],70.5%
same,"viability, T/C",[45],49.9%
same,"viability, T/C",[46],53.3%
C[C@@H](NC(=O)c1ncnc(N)c1Cl)c1ncc(C(=O)Nc2cc(C(F)(F)F)c(Cl)cn2)s1 + CCn1c(-c2cccnc2C(C)OC)c2c3cc(ccc31)N1CCOC(CC(NC(=O)C(C(C)C)N(C)C(=O)C3(F)CCN(C(=O)C#CC(C)(C)N(C)C)CC3)C(=O)N3CCCC(N3)C(=O)OCC(C)(C)C2)C1,IC50,second compound 0.000949 µM,9800 nM
same,IC50,second compound 0.003 µM,8890 nM
same,IC50,second compound 0.00949 µM,9630 nM
same,IC50,second compound 0.03 µM,> 10000 nM
same,IC50,second compound 0.0949 µM,> 10000 nM
same,IC50,second compound 0.3 µM,> 10000 nM
same,"viability, T/C",[3],117%
same,"viability, T/C",[4],129%
same,"viability, T/C",[25],141%
same,"viability, T/C",[26],141%
same,"viability, T/C",[27],120%
same,"viability, T/C",[28],48.9%
same,"viability, T/C",[7],122%
same,"viability, T/C",[8],125%
same,"viability, T/C",[29],137%
same,"viability, T/C",[30],150%
same,"viability, T/C",[31],119%
same,"viability, T/C",[32],42.2%
same,"viability, T/C",[11],125%
same,"viability, T/C",[12],127%
same,"viability, T/C",[33],140%
same,"viability, T/C",[34],139%
same,"viability, T/C",[35],120%
same,"viability, T/C",[36],47.1%
same,"viability, T/C",[15],121%
same,"viability, T/C",[16],132%
same,"viability, T/C",[37],139%
same,"viability, T/C",[38],141%
same,"viability, T/C",[39],130%
same,"viability, T/C",[40],52.5%
same,"viability, T/C",[19],114%
same,"viability, T/C",[20],127%
same,"viability, T/C",[41],135%
same,"viability, T/C",[42],138%
same,"viability, T/C",[43],120%
same,"viability, T/C",[44],51.6%
same,"viability, T/C",[23],108%
same,"viability, T/C",[24],118%
same,"viability, T/C",[45],127%
same,"viability, T/C",[46],134%
same,"viability, T/C",[47],117%
same,"viability, T/C",[48],54%
